# Laboratory results taken from patent publication US9717247B2, “Synergistic fungicidal active combinations” (BAYER CROPSCIENCE AG, priority 2003, dated 2017).
# What was measured:
# Pyricularia oryzae = assay type: cell-based; conditions: 3 ppm; in vitro, PDB, 3 days of incubation
# Sphaerotheca fuliginea = Sphaerotheca fuliginea test (cucumber)/protective; assay type: in vivo; conditions: Podosphaera fuliginea, 168 h, protective, 7 days after inoculation, read-out: Efficacy in % found
# Pyrenophora teres = Pyrenophora teres test (barley)/curative; conditions: in Hordeum vulgare, 288 h, read-out: Efficacy in % found
# Protocol: Pyrenophora teres Test (Barley)/Curative • Solvent: 50 parts by weight of N,N-dimethylacetamide • Emulsifier: 1 part by weight of alkylaryl polyglycol ether
# To test for curative activity, young plants are sprayed with a conidia suspension of Pyrenophora teres. The plants remain in an incubation cabinet at 20° C. and 100% relative atmospheric humidity for 48 hours.
# The plants are placed in a greenhouse at a temperature of about 20° C. and a relative atmospheric humidity of about 80%.
# Evaluation is carried out 12 days after the inoculation.
# Alternaria solani = Alternaria solani test (tomato)/protective; assay type: in vivo; conditions: protective, 3 days after inoculation
# Puccinia recondita = Puccinia recondita test (wheat)/curative; conditions: application rate 62.5 g/ha, curative, evaluation 8 days after inoculation
# Protocol: Puccinia recondita Test (Wheat)/Curative • Solvent: 50 parts by weight of N,N-dimethylacetamide • Emulsifier: 1 part by weight of alkylaryl polyglycol ether
# To test for curative activity, young plants are sprayed with a conidia suspension of Puccinia recondita. The plants remain in an incubation cabinet at 20° C. and 100% relative atmospheric humidity for 48 hours.
# The plants are placed in a greenhouse at a temperature of about 20° C. and a relative atmospheric humidity of about 80% to promote the development of rust pustules.
# Evaluation is carried out 8 days after the inoculation.
# [1] = test system: Erysiphe graminis f.sp. hordei; test: Erysiphe test (barley)/protective; assay type: in vivo; conditions: application rate 12.5 g/ha, protective, evaluation 6 days after inoculation
# Gibberella zeae = assay type: cell-based; conditions: 0.3 ppm; in vitro, PDB, 3 days of incubation
# Rhizoctonia solani = Rhizoctonia solani test (in vitro)/microtitre plates; assay type: cell-based; conditions: PDB, 5 days of incubation
# Protocol: Rhizoctonia solani Test (In Vitro)/Microtitre Plates The microtest is carried out in microtitre plates using potato dextrose broth (PDB) as liquid test medium. The active compounds are used as technical grade a.i., dissolved in acetone. For inoculation, a mycelium suspension of Rhizoctonia solani is used. After 5 days of incubation in the dark and with shaking (10 Hz) for each filled cavity of the microtitre plates, the light transmittance is determined with the aid of a spectrophotometer.
# [2] = test system: Erysiphe graminis f.sp. hordei; test: Erysiphe test (barley)/curative; assay type: in vivo; conditions: application rate 25 g/ha, curative, evaluation 6 days after inoculation
# Botrytis cinerea [3] = test: Botrytis cinerea test (bean)/protective; conditions: protective, 2 days after inoculation
# Protocol: After the spray coating has dried on, 2 small pieces of agar colonized by Botrytis cinerea are placed onto each leaf. The inoculated plants are placed in a darkened chamber at about 20° C. and 100% relative atmospheric humidity.
# The size of the infected areas on the leaves is evaluated 2 days after the inoculation.
# Botrytis cinerea [4] = test: Botrytis cinerea test (in vitro)/microtitre plates; assay type: cell-based; conditions: 3 ppm, PDB, 7 days of incubation
# Plasmopara viticola = Plasmopara viticola test (grapevine)/protective; assay type: in vivo; conditions: protective, 6 days after inoculation
smiles,measurement,setting,value
"Cc1nn(C)c(F)c1C(=O)Nc1ccccc1C(C)CC(C)C (stereo not drawn) [(1-2), N-[2-(1,3-dimethylbutyl)phenyl]-5-fluoro-1,3-dimethyl-1H-pyrazole-4-carboxamide]",Efficacy in % found,Pyricularia oryzae,17%
same,pest or weed control at 0.5 g/ha,Sphaerotheca fuliginea; application rate 0.5 g/ha,0%
same,pest or weed control at 1 g/ha,Sphaerotheca fuliginea; application rate 1 g/ha,18%
same,pest or weed control at 2 g/ha,Sphaerotheca fuliginea; application rate 2 g/ha,30%
same,pest or weed control at 4 g/ha,Sphaerotheca fuliginea; application rate 4 g/ha,20%
same,pest or weed control at 25 g/ha,Pyrenophora teres,29%
same,pest or weed control at 62.5 g/ha,Pyrenophora teres,71%
same,Efficacy in % found,Alternaria solani; application rate 1 g/ha,3%
same,Efficacy in % found,Alternaria solani; application rate 2 g/ha,23%
same,Efficacy in % found,Puccinia recondita,94%
same,Efficacy in % found,[1],0%
same,Efficacy in % found,Gibberella zeae,39%
same,Efficacy in % found,Rhizoctonia solani; 0.003 ppm,30%
same,Efficacy in % found,Rhizoctonia solani; 1 ppm,40%
same,Efficacy in % found,[2],0%
same,Efficacy in % found,Botrytis cinerea [3]; application rate 5 g/ha,33%
same,Efficacy in % found,Botrytis cinerea [3]; application rate 10 g/ha,64%
same,Efficacy in % found,Botrytis cinerea [3]; application rate 20 g/ha,66%
same,Efficacy in % found,Botrytis cinerea [4],35%
same,Efficacy in % found,Plasmopara viticola; application rate 25 g/ha,0%
same,Efficacy in % found,Plasmopara viticola; application rate 50 g/ha,0%
